Assay results published in PubChem BioAssay AID248 (DTP/NCI, 2004).
Where “and” joins values, the source holds several entries; their conditions need not be identical. Equal values may be shown once. Toxic doses and inconclusive results are not listed. Rule as the data show it: active = T/C of 150% or more; inactive = T/C below 125%.

System: L1210 leukemia ip in BDF1 mice, survival T/C
Assay: NCI In Vivo Anticancer Drug Screen. Data for tumor model L1210 Leukemia (intraperitoneal) in B6D2F1 (BDF1) mice
Settings: endpoint: mean survival time, higher = longer survival
Summary of the method: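 In this screen, tumor-bearing mice given compound are compared to those given vehicle, and their survival values are reported as a treated-to-control quotient.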

[1] = dose: 100.0 mg/kg/injection, schedule: Q04DX002 (ip), vehicle: saline
[2] = dose: 200.0 mg/kg/injection, schedule: Q04DX002 (ip), vehicle: saline
[3] = dose: 100.0 mg/kg/injection, schedule: Q04DX003 (ip), vehicle: saline with Tween-80
[4] = dose: 200.0 mg/kg/injection, schedule: Q04DX003 (ip), vehicle: saline with Tween-80
[5] = dose: 400.0 mg/kg/injection, schedule: Q04DX003 (ip), vehicle: saline with Tween-80
[6] = dose: 100.0 mg/kg/injection, schedule: Q01DX001 (ip), vehicle: saline
[7] = dose: 200.0 mg/kg/injection, schedule: Q01DX001 (ip), vehicle: saline
[8] = dose: 100.0 mg/kg/injection, schedule: Q01DX009 (ip), vehicle: saline with Tween-80
[9] = dose: 200.0 mg/kg/injection, schedule: Q01DX009 (ip), vehicle: saline with Tween-80
[10] = dose: 25.0 mg/kg/injection, schedule: Q04DX003 (ip), vehicle: Klucel (hydroxypropylcellulose) (HPC)
[11] = dose: 50.0 mg/kg/injection, schedule: Q01DX009 (ip), vehicle: saline with Tween-80
[12] = dose: 50.0 mg/kg/injection, schedule: Q04DX003 (ip), vehicle: Klucel (hydroxypropylcellulose) (HPC)
[13] = dose: 100.0 mg/kg/injection, schedule: Q01DX001 (ip), vehicle: carboxymethylcellulose (CMC)
[14] = dose: 100.0 mg/kg/injection, schedule: Q01DX009 (ip), vehicle: Klucel (hydroxypropylcellulose) (HPC)
[15] = dose: 100.0 mg/kg/injection, schedule: Q04DX003 (ip), vehicle: Klucel (hydroxypropylcellulose) (HPC)
[16] = dose: 200.0 mg/kg/injection, schedule: Q01DX001 (ip), vehicle: carboxymethylcellulose (CMC)
[17] = dose: 400.0 mg/kg/injection, schedule: Q01DX001 (ip), vehicle: carboxymethylcellulose (CMC)
[18] = dose: 400.0 mg/kg/injection, schedule: Q01DX001 (ip), vehicle: saline
[19] = dose: 100.0 mg/kg/injection, schedule: Q04DX003 (ip), vehicle: saline
[20] = dose: 200.0 mg/kg/injection, schedule: Q04DX003 (ip), vehicle: saline
[21] = dose: 400.0 mg/kg/injection, schedule: Q04DX003 (ip), vehicle: saline
[22] = dose: 200.0 mg/kg/injection, schedule: Q04DX003 (ip), vehicle: Klucel (hydroxypropylcellulose) (HPC)
[23] = dose: 400.0 mg/kg/injection, schedule: Q04DX003 (ip), vehicle: Klucel (hydroxypropylcellulose) (HPC)
[24] = dose: 200.0 mg/kg/injection, schedule: Q01DX009 (ip), vehicle: Klucel (hydroxypropylcellulose) (HPC)

Measured: T/C

CCSCCC#N
inactive: [1] 103 % of control | [2] 109 % of control

NC(=O)c1cccc([N+](=O)[O-])c1
inactive: [3] 101 % of control | [4] 95 % of control | [5] 93 % of control

Cc1c(C(=O)OCCCl)c(=O)n(-c2ccccc2)n1C
inactive: [6] 98 % of control | [7] 98 % of control

CC1CCC2=CC(=O)CCC2(C)C1C (stereo not given)
inactive: [8] 101 % of control | [9] 96 % of control | dose: 400.0 mg/kg/injection, schedule: Q01DX009 (ip), vehicle: saline with Tween-80 91 % of control

O=C1N(Cl)C(=O)C(c2ccc(Cl)cc2)(c2ccc(Cl)cc2)N1Cl
inactive: dose: 12.5 mg/kg/injection, schedule: Q01DX009 (ip), vehicle: saline with Tween-80 98 % of control | dose: 25.0 mg/kg/injection, schedule: Q01DX009 (ip), vehicle: Klucel (hydroxypropylcellulose) (HPC) 106 % of control | dose: 25.0 mg/kg/injection, schedule: Q01DX009 (ip), vehicle: saline with Tween-80 96 % of control | [10] 113 % of control | dose: 50.0 mg/kg/injection, schedule: Q01DX001 (ip), vehicle: carboxymethylcellulose (CMC) 101 % of control | dose: 50.0 mg/kg/injection, schedule: Q01DX009 (ip), vehicle: Klucel (hydroxypropylcellulose) (HPC) 106 % of control | [11] 102 % of control | [12] 106 % of control | [13] 108 % of control | [14] 98 % of control | dose: 100.0 mg/kg/injection, schedule: Q01DX009 (ip), vehicle: saline sonified 122 % of control | [8] 106 % of control | [15] 108 % of control | [16] 102 % of control | dose: 200.0 mg/kg/injection, schedule: Q01DX009 (ip), vehicle: saline sonified 93 % of control | [9] 106 % of control | [17] 103 % of control

CCCCC(CC)COC(=O)C[N+](C)(C)CCOC(c1ccccc1)c1ccccc1 (stereo not given)
inactive: dose: 6.25 mg/kg/injection, schedule: Q04DX003 (ip), vehicle: saline with Tween-80 91 % of control | dose: 12.5 mg/kg/injection, schedule: Q04DX003 (ip), vehicle: saline with Tween-80 97 % of control

COC1C(=O)CCC2(CO2)C1(O)C1(C)OC1CCC(C)C (stereo not given)
inactive: dose: 100.0 mg/kg/injection, schedule: Q01DX009 (ip), vehicle: acetone 95 % of control | dose: 200.0 mg/kg/injection, schedule: Q01DX009 (ip), vehicle: acetone 92 % of control

CN1CCN(C(=O)OCCOCCOC(=O)N2CCN(C)CC2)CC1
inactive: dose: 150.0 mg/kg/injection, schedule: Q01DX Z (ip), vehicle: saline 108 % of control | dose: 230.0 mg/kg/injection, schedule: Q01DX Z (ip), vehicle: saline 93 % of control | dose: 350.0 mg/kg/injection, schedule: Q01DX Z (ip), vehicle: saline 100 % of control

O=C(OC1c2ccccc2-c2ccccc21)c1cc([N+](=O)[O-])cc([N+](=O)[O-])c1
inactive: [1] 97 % of control | [2] 97 % of control | dose: 400.0 mg/kg/injection, schedule: Q04DX002 (ip), vehicle: saline 90 % of control

O=C(NO)Nc1cccc(Cl)c1
inactive: [13] 103 % of control | [16] 97 % of control | [17] 100 % of control

Cc1cccc2c(Br)cccc12
inactive: [13] 97 % of control | [16] 95 % of control | [17] 93 % of control

CC(C)(C)N1CCC1C(=O)O (stereo not given)
inactive: [6] 92 % of control | [7] 97 % of control | [18] 97 % of control

O=C(O)C(O)Cc1ccccc1 (stereo not given)
inactive: dose: 90.0 mg/kg/injection, schedule: Q04DX003 (ip), vehicle: saline 105 % of control | [19] 100 % of control and 107 % of control | dose: 135.0 mg/kg/injection, schedule: Q04DX003 (ip), vehicle: saline 100 % of control | [20] 102 % of control and 107 % of control | dose: 300.0 mg/kg/injection, schedule: Q04DX003 (ip), vehicle: saline 92 % of control | [21] 106 % of control

CCOC(=O)P(C(=O)OCC)C(=O)OCC
inactive: dose: 75.0 mg/kg/injection, schedule: Q01DX001 (ip), vehicle: saline 97 % of control

Cc1ccc(Nc2n[nH]c(=S)s2)cc1F
inactive: dose: 75.0 mg/kg/injection, schedule: Q01DX001 (ip), vehicle: other 100 % of control | dose: 150.0 mg/kg/injection, schedule: Q01DX001 (ip), vehicle: other 100 % of control | dose: 300.0 mg/kg/injection, schedule: Q01DX001 (ip), vehicle: other 100 % of control

CC(=O)Oc1ccc2c(c1)oc(=O)c1ccc(C)cc12
inactive: [15] 92 % of control | [22] 87 % of control | [23] 92 % of control

Cn1c(=S)[nH]c2cc(Cl)c(Cl)cc21
inactive: [19] 100 % of control | [20] 105 % of control | [21] 97 % of control

CC(C)(CBr)C(=O)Cl
inactive: [6] 101 % of control | [7] 106 % of control | [18] 101 % of control

CCCC(CC)NC(N)=O (stereo not given)
inactive: [3] 107 % of control | [4] 95 % of control | [5] 109 % of control

Cc1cnc2cccc(C)c2c1Cl
inactive: dose: 50.0 mg/kg/injection, schedule: Q01DX001 (ip), vehicle: saline 101 % of control | [6] 97 % of control | [7] 95 % of control

CCSc1nc(N)c(C#N)cc1C#N
inactive: [14] 105 % of control | [15] 88 % of control | [24] 95 % of control | [22] 95 % of control

COC(=O)CCC(=O)Nc1ccccc1C(C)=O
inactive: [3] 104 % of control | [4] 93 % of control | [5] 93 % of control

CS(=O)(=O)c1ccc(N)cc1
inactive: dose: 6.25 mg/kg/injection, schedule: Q04DX003 (ip), vehicle: Klucel (hydroxypropylcellulose) (HPC) 99 % of control | dose: 12.5 mg/kg/injection, schedule: Q04DX003 (ip), vehicle: Klucel (hydroxypropylcellulose) (HPC) 95 % of control | [10] 95 % of control | [11] 100 % of control | dose: 50.0 mg/kg/injection, schedule: Q01DX009 (ip), vehicle: saline 93 % of control | [8] 92 % of control | dose: 100.0 mg/kg/injection, schedule: Q01DX009 (ip), vehicle: saline 87 % of control | [9] 92 % of control | dose: 200.0 mg/kg/injection, schedule: Q01DX009 (ip), vehicle: saline 93 % of control

CCOC(=O)Nc1cc(N)c2nnn(C(c3ccccc3)c3ccccc3)c2n1
inactive: [15] 92 % of control | [22] 91 % of control | [23] 91 % of control

O=C(O)/C(=C\c1ccc([N+](=O)[O-])cc1)c1cccc2ccccc12
inactive: [12] 94 % of control | [14] 93 % of control | [15] 89 % of control | [24] 98 % of control | [22] 91 % of control
